# Results published in publication PMC10940743, “Discovery of a Novel Cellobiose Dehydrogenase from Cellulomonas palmilytica EW123 and Its Sugar Acids Production” (Journal of Microbiology and Biotechnology, 2023).
# System: T1, CpCDH (recombinant cellobiose dehydrogenase)
# T1 construct: gene cdh; signal peptide (30 residues) excluded; CYT + linker + DH domains, no CBM1; pET-28a NdeI/NotI, C-terminal His tag avoided by stop codon (N-terminal His tag implied, HisTrap); E. coli BL21(DE3); 923 residues printed; forward primer starts MVEPRH; printed 2,772 bp PCR product fits poorly with residues 31-923
# Test: spectrophotometric DCPIP reduction at […] nm, Michaelis-Menten
# Type: biochemical, Cellulomonas palmilytica
# Settings: DCPIP as electron acceptor; 50 mM sodium acetate pH 5.0; 25°C
row,Km,Structure (SMILES)
1,2.24 mM,OC[C@H]1O[C@@H](O[C@H]2[C@H](O)[C@@H](O)C(O)O[C@@H]2CO)[C@H](O)[C@@H](O)[C@@H]1O (some centres unmarked) [Cellobiose]
2,6.93 mM,OC[C@H]1O[C@@H](O[C@H]2[C@H](O)[C@@H](O)C(O)O[C@@H]2CO)[C@H](O)[C@@H](O)[C@H]1O (some centres unmarked) [Lactose]
